Reference: patent US7585834B2, “Transporters comprising spaced arginine moieties” (The Board of Trustees of the Leland Stanford Junior …, priority 2001, dated 2009)
Ahx = NCCCCCC(=O)O; Fl = fluorescein

These compounds were tested on human T cell line, Jurkat (assay: cellular uptake assay of fluorescently labeled peptides (flow cytometry, mean fluorescent signal)). Details: FIG. 1; single amino acid spacing without side chains (glycine, abu, aca); Jurkat cells.
Assay type: cell-based
Description: The fluorescently labeled peptides were dissolved in PBS, pH 7.2, and their concentrations were determined by absorption of fluorescein at 490 nm (ε=67,000). The human T cell line, Jurkat, grown in 10% fetal calf serum in DMEM, was used for all the cellular uptake experiments. Varying amounts of the peptides were added to 3×10^5 cells in a total of 200λ, in wells of microtiter plates, and incubated for varying periods of time, ranging from three to five minutes. The cells were spun, washed three times with cold PBS, incubated with 0.05% trypsin/0.53 mM EDTA (Gibco, Grand Island, N.Y.) at 37° C. for five minutes, washed with PBS, and resuspended in PBS containing 0.1% propidium iodide. The cells were analyzed either using confocal microscopy or fluorescent flow cytometry (FACScan, Becton Dickinson, Milpitas, Calif.). Cells staining with propidium iodide were excluded from the analysis. Data presented is the mean fluorescent signal for the 5000 cells collected. To prevent cellular uptake of the peptides, the cells were treated with sodium azide (1.0%) for 25 minutes prior to exposure to the peptides.
“Fl-aca-RacaRRacaRRacaRR-CONH2 [Seq. I.D. No. 6]” was tested, and the “cellular uptake of spaced arginine transport moieties tethered to fluorescein, relative to R7 homopolymer” value (“cellular uptake … relative to R7 homopolymer” below) was “ε-aminocaproic acid>γ-aminobutyric acid>glycine”. In the case of “Fl-aca-RabuRRabuRRabuRR-CONH2 [Seq. I.D. No. 5]”, the “cellular uptake … relative to R7 homopolymer” value is reported as “ε-aminocaproic acid>γ-aminobutyric acid>glycine”. “Fl-aca-RGRRGRRGRR-CONH2 [Seq. I.D. No. 4]” was tested, and the “cellular uptake … relative to R7 homopolymer” value was “ε-aminocaproic acid>γ-aminobutyric acid>glycine”.

Same assay, conditions: FIG. 2; spacing by naturally occurring amino acids; fluorescein conjugates; Jurkat cells
With “Fl-aca-RFRRFRRFRR-CONH2 ({Fl-Ahx}-RFRRFRRFRR-NH2) [Seq. I.D. No. 10]” the “cellular uptake relative to the homopolymer R7 having no spacing” value was “increase in cellular uptake was found”. `N[C@@H](Cc1c[nH]cn1)C(=O)O` [Seq. I.D. No. 11] was tested, and the “cellular uptake relative to the homopolymer R7 having no spacing” value was “increase in cellular uptake was found”. In the case of `N[C@@H](CCC(=O)O)C(=O)O` [Seq. I.D. No. 9], the “cellular uptake relative to the homopolymer R7 having no spacing” value is reported as “Reduced, or comparable uptake”. `CC[C@H](C)[C@H](N)C(=O)O` [Seq. I.D. No. 12] was tested, and the “cellular uptake relative to the homopolymer R7 having no spacing” value was “increase in cellular uptake was found”. For “Fl-aca-RSRRSRRSRR-CONH2 [Seq. I.D. No. 19]”, the “cellular uptake relative to the homopolymer R7 having no spacing” value was “increase in cellular uptake was found”. For “Fl-aca-RGRRGRRGRR-CONH2 [Seq. I.D. No. 4]”, the “cellular uptake relative to the homopolymer R7 having no spacing” value was “increase in cellular uptake was found”. For `NC(=O)CC[C@H](N)C(=O)O` [Seq. I.D. No. 18], the “cellular uptake relative to the homopolymer R7 having no spacing” value was “increase in cellular uptake was found”. “Fl-aca-RPRRPRRPRR-CONH2 [Seq. I.D. No. 17]” was tested, and the “cellular uptake relative to the homopolymer R7 having no spacing” value was “increase in cellular uptake was found”. With “Fl-aca-RMRRMRRMRR-CONH2 [Seq. I.D. No. 15]” the “cellular uptake relative to the homopolymer R7 having no spacing” value was “increase in cellular uptake was found”. `NCCCC[C@H](N)C(=O)O` [Seq. I.D. No. 13] was tested, and the “cellular uptake relative to the homopolymer R7 having no spacing” value was “increase in cellular uptake was found”. With `C[C@@H](O)[C@H](N)C(=O)O` [Seq. I.D. No. 20] the “cellular uptake relative to the homopolymer R7 having no spacing” value was “increase in cellular uptake was found”. In the case of “Fl-aca-RARRARRARR-CONH2 [Seq. I.D. No. 7]”, the “cellular uptake relative to the homopolymer R7 having no spacing” value is reported as “increase in cellular uptake was found”. For “Fl-aca-RVRRVRRVRR-CONH2 [Seq. I.D. No. 21]”, the “cellular uptake relative to the homopolymer R7 having no spacing” value was “increase in cellular uptake was found”. With “Fl-aca-RNRRNRRNRR-CONH2 [Seq. I.D. No. 16]” the “cellular uptake relative to the homopolymer R7 having no spacing” value was “increase in cellular uptake was found”. In the case of `N[C@@H](Cc1ccc(O)cc1)C(=O)O` [Seq. I.D. No. 22], the “cellular uptake relative to the homopolymer R7 having no spacing” value is reported as “Reduced, or comparable uptake”. For `N[C@@H](CC(=O)O)C(=O)O` [Seq. I.D. No. 8], the “cellular uptake relative to the homopolymer R7 having no spacing” value was “Reduced, or comparable uptake”.

Same assay, conditions: FIG. 4; 6.25 μM; Jurkat cells
“Fl-aca-R7CONH2 [Seq. I.D. No. 2, reference compound]” was tested, and the “cellular uptake at the lower concentration” value was “begins to drop off”.

Same assay, conditions: FIG. 6; compared with (RX)6R, X = aca, gly-gly or gly; Jurkat cells
In the case of “Fl-aca-r19-CONH2 [Seq. I.D. No. 29, reference compound]”, the “uptake (mean fluorescence) of (RX)6R transport oligomers versus homopolymers of D-arginine” value is reported as “significantly less effective in entering the cells”. In the case of “Fl-aca-r13-CONH2 [Seq. I.D. No. 28, reference compound]”, the “uptake (mean fluorescence) of (RX)6R transport oligomers versus homopolymers of D-arginine” value is reported as “significantly less effective in entering the cells”.
